# Measurements reported in article PMC6272887, “Discovery of Potent c-MET Inhibitors with New Scaffold Having Different Quinazoline, Pyridine and Tetrahydro-Pyridothienopyrimidine Headgroups” (Molecules, 2016).
# Legend:
# [1] = target: T1, VEGFR-2 (Homo sapiens, UniProt P35968); assay: In vitro kinase assay (HTScan VEGF Receptor 2 Kinase Assay Kit); type: biochemical; conditions: ATP 10 µM; read-out: Enzyme, IC50, µM VEGFR-2
# T1 construct: purchased Cell Signaling Technology, Inc
# Experimental: In vitro kinase inhibitory ability was determined using HTScan MET Kinase Assay Kit, HTScan VEGF Receptor 2 Kinase Assay Kit, HTScan c-Kit Kinase Assay Kit, HTScan PDGF Receptor β Kinase Assay Kit and HTScan EGFR Kinase Assay Kit(purchased from Cell Signaling Technology, Inc. Danvers, MA, USA) by colorimetric ELISA assay according to the manufacturer’s instructions. Briefly, reaction cocktail containing recombinant human MET kinase or other kinases were incubated with various concentrations of tested compounds or DMSO (0.1%) for 5 min at room temperature, and then ATP/substrate peptide cocktail was added to the pre-incubated reaction cocktail. After incubation at room temperature for 30 min, the reaction was stopped and transferred to a 96-wellstreptavidin-coated plate, and incubated for 1 h at room temperature. Primary antibody (phosphorylated tyrosine monoclonal antibody (pTyr-100), 1:1000 in PBS/T with 1% bovine serum albumin (BSA)) was added into per well until the wells were washed thrice with PBS/T. After incubated at room temperature for 1 h, phosphorylation of the substrate was monitored with HRP-labeled anti-mouse IgG antibody (1:500 in PBS/T with 1% BSA), followed by a chromogenic reaction. Finally, the kinase assay was detected at 450 nm with microplate reader. The reaction processed with only DMSO (0.1%) served as a vehicle control. […]
# [2] = tested on: HeLa (human cervical carcinoma); assay: Cell proliferative assay (MTT), HeLa; type: cell-based; conditions: Homo sapiens, HeLa, HeLa cells, read-out: Proliferative Inhibition (IC50, µM) HeLa
# Experimental: (§1) The anti-proliferative activities of synthesized compounds against HeLa, Hep-G2 and MCF-7 cells were evaluated by MTT assay. HeLa cells were grown to log phase in RPMI 1640 medium supplemented with 10% fetal bovine serum. Hep-G2 and MCF-7 cells were grown to log phase in DMEM medium supplemented with 10% fetal bovine serum. After diluting to […] with the complete medium, 100 µL of the obtained cell suspension was added to each well of 96-well culture plates. The subsequent incubation was permitted at 37 °C, 5% CO2 atmosphere for 48 h before the anti-proliferative assessments. Tested samples at pre-set concentrations were added to 6 wells. Before the anti-proliferative assessments, 20 µL of PBS containing 2.5 mg∙mL^−1 of MTT was added to each well. Four h later, 100 µL extraction solution (DMSO) was added to each well and the optical density was measured at a wavelength of 570 nm on an ELISA microplate reader.
# [3] = tested on: Hep-G2 (human liver cancer); assay: Cell proliferative assay (MTT), Hep-G2; type: cell-based; conditions: Homo sapiens, HepG2, Hep-G2 cells, read-out: Proliferative Inhibition (IC50, µM) Hep-G2
# Experimental: as §1
# [4] = target: T2, EGFR (Homo sapiens, UniProt P00533); assay: In vitro kinase assay (HTScan EGFR Kinase Assay Kit); type: biochemical; conditions: for IC50: ATP 10 µM, read-out: Enzyme, IC50, µM EGFR; for selectivity against EGFR: relative to c-MET
# T2 construct: purchased Cell Signaling Technology, Inc
# Experimental: (§2) In vitro kinase inhibitory ability was determined using HTScan MET Kinase Assay Kit, HTScan VEGF Receptor 2 Kinase Assay Kit, HTScan c-Kit Kinase Assay Kit, HTScan PDGF Receptor β Kinase Assay Kit and HTScan EGFR Kinase Assay Kit(purchased from Cell Signaling Technology, Inc. Danvers, MA, USA) by colorimetric ELISA assay according to the manufacturer’s instructions. Briefly, reaction cocktail containing recombinant human MET kinase or other kinases were incubated with various concentrations of tested compounds or DMSO (0.1%) for 5 min at room temperature, and then ATP/substrate peptide cocktail was added to the pre-incubated reaction cocktail. After incubation at room temperature for 30 min, the reaction was stopped and transferred to a 96-wellstreptavidin-coated plate, and incubated for 1 h at room temperature. Primary antibody (phosphorylated tyrosine monoclonal antibody (pTyr-100), 1:1000 in PBS/T with 1% bovine serum albumin (BSA)) was added into per well until the wells were washed thrice with PBS/T. After incubated at room temperature for 1 h, phosphorylation of the substrate was monitored with HRP-labeled anti-mouse IgG antibody (1:500 in PBS/T with 1% BSA), followed by a chromogenic reaction. Finally, the kinase assay was detected at 450 nm with microplate reader. The reaction processed with only DMSO (0.1%) served as a vehicle control. […] The kinase assay was performed thrice independently.
# [5] = target: T3, PDGFR-b (Homo sapiens, UniProt P09619); assay: In vitro kinase assay (HTScan PDGF Receptor β Kinase Assay Kit); type: biochemical; conditions: for IC50: ATP 10 µM, read-out: Enzyme, IC50, µM PDGFR-b; for selectivity against PDGFR-b: relative to c-MET
# T3 construct: purchased Cell Signaling Technology, Inc
# Experimental: as §2
# [6] = tested on: MCF-7 (human breast cancer); assay: Cell proliferative assay (MTT), MCF-7; type: cell-based; conditions: Homo sapiens, MCF7, MTT assay, MCF-7 cells; read-out: Proliferative Inhibition (IC50, µM) MCF-7
# Experimental: as §1
# [7] = target: T4, c-MET (Homo sapiens, UniProt P08581); assay: In vitro kinase assay (HTScan MET Kinase Assay Kit, colorimetric ELISA); type: biochemical; conditions: ATP 10 µM; three independent determinations; read-out: Enzymatic Inhibition (IC50, µM) c-MET
# T4 construct: purchased Cell Signaling Technology, Inc
# Experimental: as §2
# [8] = target: T5, c-Kit (Homo sapiens, UniProt P10721); assay: In vitro kinase assay (HTScan c-Kit Kinase Assay Kit); type: biochemical; conditions: for IC50: ATP 10 µM, read-out: Enzyme, IC50, µM c-Kit; for selectivity against c-Kit: relative to c-MET
# T5 construct: purchased Cell Signaling Technology, Inc
# Experimental: as §2
# [9] = tested on: c-MET; design: method as in PMID 19896842, PMID 24485123, PMID 23041435; conditions: cell-free assays; cited from earlier work
# T5 sequence (P10721 26-976): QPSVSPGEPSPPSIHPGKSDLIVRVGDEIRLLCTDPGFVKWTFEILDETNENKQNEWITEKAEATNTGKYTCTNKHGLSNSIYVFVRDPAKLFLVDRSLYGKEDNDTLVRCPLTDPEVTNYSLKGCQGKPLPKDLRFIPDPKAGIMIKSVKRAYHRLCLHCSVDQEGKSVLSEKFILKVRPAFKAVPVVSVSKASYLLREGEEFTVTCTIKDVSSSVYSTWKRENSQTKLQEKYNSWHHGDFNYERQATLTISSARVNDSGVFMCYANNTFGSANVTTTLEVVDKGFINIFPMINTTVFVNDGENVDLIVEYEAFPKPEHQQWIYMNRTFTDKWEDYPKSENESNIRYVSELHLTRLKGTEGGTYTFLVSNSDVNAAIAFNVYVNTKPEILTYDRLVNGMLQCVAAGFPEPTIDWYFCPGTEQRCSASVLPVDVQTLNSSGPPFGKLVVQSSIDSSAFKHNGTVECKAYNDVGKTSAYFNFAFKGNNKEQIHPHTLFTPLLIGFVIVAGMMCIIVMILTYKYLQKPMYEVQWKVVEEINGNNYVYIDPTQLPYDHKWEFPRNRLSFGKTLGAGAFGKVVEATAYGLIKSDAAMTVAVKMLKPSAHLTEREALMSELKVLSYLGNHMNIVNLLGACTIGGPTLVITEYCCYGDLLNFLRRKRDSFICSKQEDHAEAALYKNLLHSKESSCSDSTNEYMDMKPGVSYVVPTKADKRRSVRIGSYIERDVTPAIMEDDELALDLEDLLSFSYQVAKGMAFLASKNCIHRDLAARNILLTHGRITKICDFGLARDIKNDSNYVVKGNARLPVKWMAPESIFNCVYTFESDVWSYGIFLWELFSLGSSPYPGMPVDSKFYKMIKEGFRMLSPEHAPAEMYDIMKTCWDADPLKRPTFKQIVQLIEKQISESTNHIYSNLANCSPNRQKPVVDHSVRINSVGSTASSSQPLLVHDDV
# T3 sequence (P09619 33-1106): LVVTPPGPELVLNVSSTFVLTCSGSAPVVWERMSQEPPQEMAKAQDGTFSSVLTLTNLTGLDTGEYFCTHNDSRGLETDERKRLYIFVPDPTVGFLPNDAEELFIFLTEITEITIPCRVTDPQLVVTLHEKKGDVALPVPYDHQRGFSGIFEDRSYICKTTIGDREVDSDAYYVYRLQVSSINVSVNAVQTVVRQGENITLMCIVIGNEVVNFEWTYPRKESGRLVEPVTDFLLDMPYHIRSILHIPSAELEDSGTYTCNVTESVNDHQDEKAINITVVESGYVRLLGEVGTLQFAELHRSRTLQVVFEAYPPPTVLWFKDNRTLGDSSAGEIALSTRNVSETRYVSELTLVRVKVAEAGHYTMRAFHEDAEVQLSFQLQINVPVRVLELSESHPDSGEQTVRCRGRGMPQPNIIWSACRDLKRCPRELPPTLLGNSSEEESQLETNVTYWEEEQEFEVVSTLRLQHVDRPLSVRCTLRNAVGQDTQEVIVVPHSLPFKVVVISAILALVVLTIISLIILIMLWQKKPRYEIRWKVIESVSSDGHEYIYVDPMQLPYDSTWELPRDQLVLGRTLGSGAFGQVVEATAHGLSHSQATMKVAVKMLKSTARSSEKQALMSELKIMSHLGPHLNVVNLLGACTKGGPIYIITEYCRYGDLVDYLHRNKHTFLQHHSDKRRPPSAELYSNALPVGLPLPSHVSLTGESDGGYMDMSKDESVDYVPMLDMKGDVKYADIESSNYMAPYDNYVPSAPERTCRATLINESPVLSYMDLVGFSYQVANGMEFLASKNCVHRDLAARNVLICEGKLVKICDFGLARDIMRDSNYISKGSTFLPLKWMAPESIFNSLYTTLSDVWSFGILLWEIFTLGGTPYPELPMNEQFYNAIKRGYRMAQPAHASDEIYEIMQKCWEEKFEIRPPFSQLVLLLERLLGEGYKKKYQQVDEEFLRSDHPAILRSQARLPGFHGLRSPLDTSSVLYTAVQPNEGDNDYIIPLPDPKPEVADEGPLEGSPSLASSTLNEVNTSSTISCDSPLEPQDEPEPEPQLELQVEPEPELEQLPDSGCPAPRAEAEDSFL
# T2 sequence (P00533 25-1210): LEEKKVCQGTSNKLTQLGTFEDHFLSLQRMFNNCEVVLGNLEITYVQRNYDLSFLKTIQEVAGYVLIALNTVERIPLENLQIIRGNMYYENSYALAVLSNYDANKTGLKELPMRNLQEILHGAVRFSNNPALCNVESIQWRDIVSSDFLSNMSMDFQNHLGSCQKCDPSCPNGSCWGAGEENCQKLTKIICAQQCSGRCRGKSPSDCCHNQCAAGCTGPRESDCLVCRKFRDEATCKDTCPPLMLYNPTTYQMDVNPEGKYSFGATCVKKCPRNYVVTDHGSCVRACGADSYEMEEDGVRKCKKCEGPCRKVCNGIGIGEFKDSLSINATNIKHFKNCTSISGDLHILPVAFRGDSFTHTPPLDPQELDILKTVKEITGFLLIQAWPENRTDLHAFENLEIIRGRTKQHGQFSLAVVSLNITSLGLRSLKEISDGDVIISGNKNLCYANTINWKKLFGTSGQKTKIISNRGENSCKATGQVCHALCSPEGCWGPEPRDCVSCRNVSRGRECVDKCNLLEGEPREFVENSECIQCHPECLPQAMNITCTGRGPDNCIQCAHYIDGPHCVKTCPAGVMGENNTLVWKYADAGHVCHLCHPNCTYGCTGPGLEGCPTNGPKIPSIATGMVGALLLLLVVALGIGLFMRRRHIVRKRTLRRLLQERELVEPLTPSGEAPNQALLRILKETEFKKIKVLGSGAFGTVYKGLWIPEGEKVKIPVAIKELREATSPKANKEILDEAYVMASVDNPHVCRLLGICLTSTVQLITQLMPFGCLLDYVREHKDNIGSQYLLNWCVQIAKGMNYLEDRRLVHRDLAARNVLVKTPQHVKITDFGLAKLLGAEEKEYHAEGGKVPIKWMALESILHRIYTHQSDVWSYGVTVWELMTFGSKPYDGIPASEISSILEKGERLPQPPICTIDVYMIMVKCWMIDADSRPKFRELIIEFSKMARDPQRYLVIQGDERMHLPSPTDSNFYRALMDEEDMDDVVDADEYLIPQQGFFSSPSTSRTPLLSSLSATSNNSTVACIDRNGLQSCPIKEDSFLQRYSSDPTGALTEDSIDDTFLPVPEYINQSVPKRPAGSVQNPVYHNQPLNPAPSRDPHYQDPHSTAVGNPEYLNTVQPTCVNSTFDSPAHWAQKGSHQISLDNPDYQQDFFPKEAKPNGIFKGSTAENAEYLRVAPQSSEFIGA
# T4 sequence (P08581 25-1390): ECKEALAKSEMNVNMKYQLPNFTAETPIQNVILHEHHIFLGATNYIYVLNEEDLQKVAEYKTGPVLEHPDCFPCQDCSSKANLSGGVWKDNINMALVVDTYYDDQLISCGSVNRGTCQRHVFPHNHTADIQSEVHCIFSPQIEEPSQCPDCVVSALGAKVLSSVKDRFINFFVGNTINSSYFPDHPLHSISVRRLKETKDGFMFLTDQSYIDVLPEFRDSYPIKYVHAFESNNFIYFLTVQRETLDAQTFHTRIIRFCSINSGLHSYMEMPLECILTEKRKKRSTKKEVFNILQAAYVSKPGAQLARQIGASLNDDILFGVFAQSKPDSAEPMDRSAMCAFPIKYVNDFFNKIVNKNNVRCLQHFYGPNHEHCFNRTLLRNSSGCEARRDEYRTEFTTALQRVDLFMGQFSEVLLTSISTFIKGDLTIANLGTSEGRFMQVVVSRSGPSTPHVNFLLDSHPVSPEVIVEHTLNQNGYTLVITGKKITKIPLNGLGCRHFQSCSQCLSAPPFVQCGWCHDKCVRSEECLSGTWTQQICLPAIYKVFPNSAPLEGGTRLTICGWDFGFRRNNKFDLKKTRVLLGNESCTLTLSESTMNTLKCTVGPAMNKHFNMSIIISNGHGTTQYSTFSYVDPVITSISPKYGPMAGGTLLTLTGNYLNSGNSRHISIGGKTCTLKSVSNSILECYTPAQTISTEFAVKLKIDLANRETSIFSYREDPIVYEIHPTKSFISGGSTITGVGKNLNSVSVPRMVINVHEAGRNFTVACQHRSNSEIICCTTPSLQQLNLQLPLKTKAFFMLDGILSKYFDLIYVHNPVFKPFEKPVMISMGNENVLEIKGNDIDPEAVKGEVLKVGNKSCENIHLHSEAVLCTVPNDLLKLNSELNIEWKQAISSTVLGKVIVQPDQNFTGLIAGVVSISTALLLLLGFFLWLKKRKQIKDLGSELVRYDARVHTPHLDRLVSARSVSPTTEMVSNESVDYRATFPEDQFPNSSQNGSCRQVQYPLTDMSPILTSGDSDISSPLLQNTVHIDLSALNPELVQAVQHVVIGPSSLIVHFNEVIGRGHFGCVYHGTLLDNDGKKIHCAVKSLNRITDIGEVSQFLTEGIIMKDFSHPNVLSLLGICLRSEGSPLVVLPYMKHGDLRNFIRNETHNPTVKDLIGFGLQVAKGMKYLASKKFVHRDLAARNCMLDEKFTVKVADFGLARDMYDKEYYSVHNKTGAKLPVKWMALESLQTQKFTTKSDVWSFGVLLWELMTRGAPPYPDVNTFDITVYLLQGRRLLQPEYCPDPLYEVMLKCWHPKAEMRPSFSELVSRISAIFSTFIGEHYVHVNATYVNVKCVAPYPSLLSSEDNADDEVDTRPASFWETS
IC50 [1] [µM],melting point [°C],IC50 [2] [µM],IC50 [3] [µM],IC50 [4] [µM],selectivity against EGFR [4] [fold],IC50 [5] [µM],selectivity against PDGFR-b [5] [fold],IC50 [6] [µM],IC50 [7] [µM],IC50 [8] [µM],selectivity against c-Kit [8] [fold],SMILES,IC50 [9] [µM]
0.1 ± 0.02,180 to 182,4.7 ± 0.11,12.8 ± 0.28,> 10,> 500,> 10,> 500,1.2 ± 0.21,0.02,4.3 ± 0.11,215,COc1cc2ncnc(Oc3ccc(NC(=O)C4(C(=O)Nc5ccc(F)cc5)CC4)cc3F)c2cc1OC [Compound 13b],
0.25 ± 0.02,171 to 173,4.6 ± 0.03,1.7 ± 0.04,> 10,> 200,7.2 ± 0.1,144,2.8 ± 0.23,0.05 ± 0.01,5.2 ± 0.09,104,"CC(C)(C)OC(=O)N1CCc2c(sc3ncnc(Oc4ccc(NC(=O)C5(C(=O)Nc6ccc(F)cc6)CC5)cc4F)c23)C1 [Compound 13h, tert-butyl-4-{2-fluoro-4-(1-((4-fluorophenyl)carbamoyl)cyclopropanecarboxamido)phenoxy}-5,6-dihydropyrido(4’,3’:4,5)thieno(2,3-d)pyrimidine-7(8H)-carboxylate]",

SMILES,IC50 [1] [µM],melting point [°C],IC50 [2] [µM],IC50 [3] [µM],IC50 [4] [µM],selectivity against EGFR [4] [fold],IC50 [5] [µM],selectivity against PDGFR-b [5] [fold],IC50 [6] [µM],IC50 [7] [µM],IC50 [8] [µM],selectivity against c-Kit [8] [fold],IC50 [9] [µM]
"COc1cc2nccc(Oc3ccc(NC(=O)C4(C(=O)Nc5ccc(F)cc5)CC4)cc3)c2cc1OC [XL184, Cabozantinib, reference compound]",,,,49.1 ± 0.25,,,,,,,,,0.0013
